# Data published in paper PMC3731299, “Isoniazid Inhibits the Heme-Based Reactivity of Mycobacterium tuberculosis Truncated Hemoglobin N” (PLoS ONE, 2013).
# Like-named read-outs stand apart in the source and are kept apart here. Marks after values point to notes of the source that are not given here.
# Tests used:
# Mt-trHbN(III) [1] = biological target: T1, Mt-trHbN(III) (Mycobacterium tuberculosis, UniProt P9WN25); assay: Peroxynitrite isomerization by Mt-trHbN(III) in the absence and presence of isoniazid; format: biochemical
# T1 construct: made in house
# Protocol: Rapid-mixing experiments were performed using either the SX18.MV stopped-flow apparatus (Applied Photophysics, Salisbury, United Kingdom) or the SFM-20 stopped-flow apparatus (Bio-Logic SAS, Claix, France); the dead time was 1.0 ms.
# (§1) Kinetics of peroxynitrite isomerization by Mt-trHbN(III) in the absence and presence of isoniazid was recorded spectrophotometrically at 302 nm (ε302 nm = 1.705×10^3 M^−1 cm^−1) [60]–[67] in the absence and presence of Mt-trHbN(III) (final concentration 2.5×10^−6 – 1.0×10^−5 M) and isoniazid (final concentration 3.0×10^−5 – 4.0×10^−4 M) by rapid mixing the Mt-trHbN(III) or buffer solution with the peroxynitrite solution (final concentration 2.5×10^−4 M).
# Kinetics of peroxynitrite isomerization by Mt-trHbN(III) in the absence and presence of isoniazid was analyzed in the framework of the minimum reaction mechanism depicted by Scheme D [60]–[67]: [drawing 11] (D)
# Values of the pseudo-first-order rate constant for Mt-trHbN(III)-mediated peroxynitrite isomerization (i.e., l ^obs) were determined in the absence and presence of isoniazid according to Equation 8 [60]–[67]: [drawing 12] (8)
# Values of the second-order rate constant for Mt-trHbN(III)-mediated peroxynitrite isomerization (i.e., l on) and of the first-order rate constant for peroxynitrite isomerization in the absence of Mt-trHbN(III) (i.e., l 0) were determined from the linear dependence of l ^obs values on the Mt-trHbN(III) concentration according to Equation 9 [60]–[67]: [drawing 13] (9)
# The value of K for isoniazid binding to Mt-trHbN(III) was determined from the dependence of l on the drug concentration (i.e., 3.0×10^−5 M ≤ [isoniazid] ≤4.0×10^−4 M) according to Equation 11 [60]–[67]: [drawing 15] (11) where l on ^app is the value of l on in the presence of isoniazid.
# Mt-trHbN(II) [2] = biological target: T2, Mt-trHbN(II) (Mycobacterium tuberculosis, UniProt P9WN25); format: binding
# T2 construct: made in house
# Mt-trHbN(II) [3] = biological target: T2, Mt-trHbN(II); assay: Isoniazid binding to Mt-trHbN(II), stopped-flow, anaerobic
# Mt-trHbN(III) [4] = biological target: T1, Mt-trHbN(III); assay: biochemical; format: binding
# Mt-trHbN(III) [5] = biological target: T1, Mt-trHbN(III); format: biochemical
# Mt-trHbN(II) [6] = biological target: T2, Mt-trHbN(II); assay: O2 binding to Mt-trHbN(II) in the absence and presence of isoniazid (tonometer method); conditions: [isoniazid] = 1.0×10^−2 M
# Protocol: The value of B was determined by the tonometer method adding small volumes of air to the Mt-trHbN(II) solution (1.3×10^−6 M), in the absence and presence of isoniazid ( = 1.0×10^−2 M; B ^obs).
# plasma protein = tested on: plasma protein; design: method as in ref 89 = [89]; 89 Medical Economics (2004) Drug Information for the Health Care Professional, Thomson PDR, Montvale, p. 1689.; conditions: cited from earlier work
# KatG(III) = biological target: KatG(III); design: method as in PMID 17309235; conditions: pH 7.2, 25.0°C, cited from earlier work
# [7] = Peroxynitrite isomerization in the absence of Mt-trHbN(III); conditions: pH 7.0, 20.0°C
# Protocol: as §1
# Values of l 0 for peroxynitrite isomerization in the absence of Mt-trHbN(III) were also determined in the absence and presence of isoniazid from the analysis of the time-dependent absorbance decrease at 302 nm according to Equation 10 [60]–[67]: [drawing 14] (10)
# Mt-trHbN(III) [8] = biological target: T1, Mt-trHbN(III); assay: biochemical; format: binding; remark: listed apart in the source
# Sperm whale Mb(III) = conditions: pH 7.5, 20.0°C; cited from earlier work
# [9] = isoniazid 1.0×10^−4 M, pH 7.0, 20.0°C
# [10] = isoniazid 1.2×10^−4 M, pH 7.0, 20.0°C
# [11] = isoniazid 2.0×10^−4 M, pH 7.0, 20.0°C
# [12] = isoniazid 2.4×10^−4 M, pH 7.0, 20.0°C
# [13] = isoniazid 3.0×10^−5 M, pH 7.0, 20.0°C
# [14] = isoniazid 5.0×10^−5 M, pH 7.0, 20.0°C
# [15] = isoniazid 6.0×10^−5 M, pH 7.0, 20.0°C
# [16] = Mt-trHbN(III) 5.0×10^−5 M, isoniazid 1.0×10^−2 M, pH 7.0, 20.0°C
# [17] = absence of Mt-trHbN(III), isoniazid and azide
# [18] = no Mt-trHbN(III), isoniazid 1.0×10^−2 M, pH 7.0, 20.0°C
smiles,measurement,setting,value
NNC(=O)c1ccncc1 [isoniazid],Kd,"Mt-trHbN(III) [1]; Equation 11, dependence of l on [isoniazid] 3.0×10^−5 to 4.0×10^−4 M, pH 7.0, 20.0°C, read-out: K for isoniazid binding to Mt-trHbN(III) from inhibition of peroxynitrite isomerization",130 µM
same,Mt-trHbN(III) catalysis of peroxynitrite isomerization,Mt-trHbN(III) [1]; [isoniazid] >10×K,does not catalyze the isomerization of peroxynitrite
same,average l 0 value (l 0 unaffected by isoniazid),"Mt-trHbN(III) [1]; absence and presence of isoniazid, pH 7.0, 20.0°C",0.28 s⁻¹
same,Hill coefficient n for isoniazid binding to Mt-trHbN(III),Mt-trHbN(III) [1]; from dependence of l on isoniazid concentration,1.00±0.02
same,l 0 for Mt-trHbN(III)-catalyzed peroxynitrite isomerization (y intercept),Mt-trHbN(III) [1]; [9],(3.1±0.3)×10^−1 s^−1
same,"l on app, second-order rate constant for Mt-trHbN(III)-mediated peroxynitrite isomerization",Mt-trHbN(III) [1]; [9],(3.3±0.3)×10^4 M^−1 s^−1
same,l 0 for Mt-trHbN(III)-catalyzed peroxynitrite isomerization (y intercept),Mt-trHbN(III) [1]; [10],(2.6±0.3)×10^−1 s^−1
same,"l on app, second-order rate constant for Mt-trHbN(III)-mediated peroxynitrite isomerization",Mt-trHbN(III) [1]; [10],(3.2±0.3)×10^4 M^−1 s^−1
same,l 0 for Mt-trHbN(III)-catalyzed peroxynitrite isomerization (y intercept),Mt-trHbN(III) [1]; [11],(2.5±0.3)×10^−1 s^−1
same,"l on app, second-order rate constant for Mt-trHbN(III)-mediated peroxynitrite isomerization",Mt-trHbN(III) [1]; [11],(2.7±0.3)×10^4 M^−1 s^−1
same,l 0 for Mt-trHbN(III)-catalyzed peroxynitrite isomerization (y intercept),Mt-trHbN(III) [1]; [12],(3.0±0.3)×10^−1 s^−1
same,"l on app, second-order rate constant for Mt-trHbN(III)-mediated peroxynitrite isomerization",Mt-trHbN(III) [1]; [12],(2.4±0.3)×10^4 M^−1 s^−1
same,l 0 for Mt-trHbN(III)-catalyzed peroxynitrite isomerization (y intercept),Mt-trHbN(III) [1]; [13],(2.9±0.3)×10^−1 s^−1
same,"l on app, second-order rate constant for Mt-trHbN(III)-mediated peroxynitrite isomerization",Mt-trHbN(III) [1]; [13],(5.1±0.5)×10^4 M^−1 s^−1
same,l 0 for Mt-trHbN(III)-catalyzed peroxynitrite isomerization (y intercept),"Mt-trHbN(III) [1]; isoniazid 4.0×10^−4 M, pH 7.0, 20.0°C",(2.5±0.3)×10^−1 s^−1
same,l 0 for Mt-trHbN(III)-catalyzed peroxynitrite isomerization (y intercept),Mt-trHbN(III) [1]; [14],(2.8±0.3)×10^−1 s^−1
same,"l on app, second-order rate constant for Mt-trHbN(III)-mediated peroxynitrite isomerization",Mt-trHbN(III) [1]; [14],(4.4±0.4)×10^4 M^−1 s^−1
same,l 0 for Mt-trHbN(III)-catalyzed peroxynitrite isomerization (y intercept),Mt-trHbN(III) [1]; [15],(3.0±0.3)×10^−1 s^−1
same,"l on app, second-order rate constant for Mt-trHbN(III)-mediated peroxynitrite isomerization",Mt-trHbN(III) [1]; [15],(4.1±0.4)×10^4 M^−1 s^−1
same,effect of isoniazid on CO binding to Mt-trHbN(II),Mt-trHbN(II) [2]; 5.0×10^−3 M isoniazid,grossly impairs CO binding
same,phases of CO binding to Mt-trHbN(II),"Mt-trHbN(II) [2]; [isoniazid] ≥1.0×10^−2 M, data not shown",only the slow phase is observed
same,lower affinity for the ferrous form than for the ferric form,Mt-trHbN(II) [3]; Mt-trHbN(II) versus Mt-trHbN(III),10 fold
same,Kd,Mt-trHbN(II) [3]; average of the D values here determined,1200 µM
same,Hill coefficient n for isoniazid binding to Mt-trHbN(II),"Mt-trHbN(II) [3]; pH 7.0, 20.0°C",1.01±0.01
same,koff,"Mt-trHbN(II) [3]; pH 7.0, 20.0°C, Equation 14, read-out: first-order dissociation rate constant d off",1.5 s⁻¹
same,kon,"Mt-trHbN(II) [3]; pH 7.0, 20.0°C, Equation 14, read-out: second-order association rate constant d on",1300 M⁻¹ s⁻¹
same,Hill coefficient n for isoniazid binding to Mt-trHbN(III),Mt-trHbN(III) [4]; pH 7,1.01±0.02
same,koff,"Mt-trHbN(III) [4]; pH 7.0, 20.0°C, Equation 3, read-out: first-order dissociation rate constant k off",0.46 s⁻¹
same,kon,"Mt-trHbN(III) [4]; pH 7.0, 20.0°C, Equation 3, read-out: second-order association rate constant k on",5300 M⁻¹ s⁻¹
same,Kd,"Mt-trHbN(III) [4]; pH 7.0, 20.0°C, obtained at equilibrium, Equation 1, read-out: dissociation equilibrium constant K for isoniazid binding to Mt-trHbN(III)",110 µM
same,Kd,"Mt-trHbN(III) [4]; pH 7.0, 20.0°C, read-out: K calculated from kinetic parameters (k off/k on)",87 µM
same,average yield of NO2 –,Mt-trHbN(III) [5],26%
same,average yield of NO3 –,Mt-trHbN(III) [5],74%
same,NO2 –,Mt-trHbN(III) [5]; [16],25±4%
same,NO3 –,Mt-trHbN(III) [5]; [16],74±8%
same,NO3 – + NO2 –,Mt-trHbN(III) [5]; [16],99%
same,NO2 –,Mt-trHbN(III) [5]; pH 7,26±4%
same,NO3 –,Mt-trHbN(III) [5]; pH 7,75±8%
same,NO3 – + NO2 –,Mt-trHbN(III) [5]; pH 7,101%
same,mode of inhibition of O2 binding to Mt-trHbN(II),Mt-trHbN(II) [6],inhibits competitively
same,plasma protein binding,plasma protein,very poor
same,Kd,"KatG(III); obtained at equilibrium, read-out: K for isoniazid binding to KatG(III)",~1 µM
same,k off for isoniazid binding to KatG(III),KatG(III),k off = 2.0×10^−2 s^−1
same,k on for isoniazid binding to KatG(III),KatG(III),k on = 4.8×10^2 M^−1 s^−1
same,Kd,KatG(III); read-out: K calculated from kinetic parameters (k off/k on) for KatG(III),42 µM
same,l 0 for peroxynitrite isomerization in the absence of Mt-trHbN(III),[7]; isoniazid 1.0×10^−4 M,(3.2±0.3)×10 ^−1 s^−1
same,l 0 for peroxynitrite isomerization in the absence of Mt-trHbN(III),[7]; isoniazid 1.2×10^−4 M,(2.4±0.3)×10 ^−1 s^−1
same,l 0 for peroxynitrite isomerization in the absence of Mt-trHbN(III),[7]; isoniazid 2.0×10^−4 M,(2.6±0.3) ×10 ^−1 s^−1
same,l 0 for peroxynitrite isomerization in the absence of Mt-trHbN(III),[7]; isoniazid 2.4×10^−4 M,(2.9±0.3)×10 ^−1 s^−1
same,l 0 for peroxynitrite isomerization in the absence of Mt-trHbN(III),[7]; isoniazid 3.0×10^−5 M,(2.7±0.3)×10 ^−1 s^−1
same,l 0 for peroxynitrite isomerization in the absence of Mt-trHbN(III),[7]; isoniazid 4.0×10^−4 M,(2.6±0.3)×10 ^−1 s^−1
same,l 0 for peroxynitrite isomerization in the absence of Mt-trHbN(III),[7]; isoniazid 5.0×10^−5 M,(3.0 ±0.3)×10 ^−1 s^−1
same,l 0 for peroxynitrite isomerization in the absence of Mt-trHbN(III),[7]; isoniazid 6.0×10^−5 M,(2.6±0.3)×10 ^−1 s^−1
same,mode of inhibition of azide binding to Mt-trHbN(III),Mt-trHbN(III) [8]; 1.0×10^−3 M ≤ [isoniazid] ≤4.0×10^−3 M,inhibits competitively
same,Kd,"Mt-trHbN(III) [8]; Equation 7, H obs/H ratio versus [isoniazid] 1.0×10^−3 to 4.0×10^−3 M, pH 7.0, 20.0°C",95 µM
same,average yield of NO2 –,[17],29%
same,average yield of NO3 –,[17],72%
same,NO2 –,[18],31±4%
same,NO3 –,[18],71±6%
same,NO3 – + NO2 –,[18],102%
same,NO2 –,pH 7,28±4%
same,NO3 –,pH 7,72±5%
same,NO3 – + NO2 –,pH 7,100%
O=NOO [peroxynitrite],l on for peroxynitrite detoxification by sperm whale Mb(III),Sperm whale Mb(III),l on = 1.6×10^4 M^−1 s^−1 ^e
